“And” between values parts separate entries of the source, which are not always exact repeats. Identical values can stand only once.
Legend:
HIF-2α = HIF-2α (Homo sapiens, UniProt Q99814); assay: Immunoblot of HIF-2α accumulation in MIO-M1 cells cultured in hypoxia; assay type: cell-based; parameters: endogenous in cells; host or cells: MIO-M1; settings: MIO-M1, 1 μM 32-134D, 1% O2 4 hours
Procedure: MIO-M1, HUVECs, and ARPE19 cells were cultured in DMEM with 10% (vol/vol) FBS (Quality Biological) and 1% penicillin/streptomycin (Cellgro). A hypoxic chamber (Coy Laboratory Product Inc.; Two Glove Model) with 5% CO2, 94% N2, and 1% O2 gas concentration at 37°C was used to culture hypoxic cells. The control cells were cultured in an incubator maintained at 37°C, with 21% O2 and 5% CO2. […] Aflibercept was obtained from the Johns Hopkins University Pharmacy.
Immunoblot assays. Cells, neurosensory retina, and D120 retinal organoid lysates were subjected
to 4–15% gradient SDS/PAGE (Invitrogen). Immunoblot (Western blot or WB) assays were
performed as previously described (1). […]

[1] = system: HIF-regulated vasoactive mediators; assay: mRNA expression of HIF-regulated vasoactive mediators in retina of STZ-induced diabetic mice (qPCR); assay type: in vivo, mouse; settings: STZ mice, replicates; for Angptl4 mRNA / Vegfa mRNA: S Figure 3B; for Angpt2 mRNA / Ptprb mRNA: S Figure 3C
Procedure: Reverse transcription and quantitative real-time PCR. Total RNA was isolated from cultured cells or retinas with PureLinkTM RNA Mini Kit (Invitrogen #12183025), and cDNA was prepared with MuLV Reverse Transcriptase (Applied Biosystems). Quantitative real-time PCR was performed with Power SYBR Green PCR Master Mix (Applied Biosystems) and MyiQ Real-Time PCR Detection System (Bio-Rad). Normalization was done using cyclophilin A for mouse tissue and human cell lines. Primers are listed in Supplemental Table 2. […]
STZ-induced diabetes mouse model. 8-to-10 week-old male mice received an IP injection of STZ at 40 mg/kg of body weight in 0.1M of citrate buffer (pH 4.5) for 5 consecutive days. Normal chow and 10% sucrose water were provided during this period. 10% sucrose was discontinued and replaced with regular water on experimental day 6. Blood glucose was measured on experimental day 28 after 16 hours fasting and mice with blood glucose level > 250 mg/dL were considered […]
Intraperitoneal (IP) injections. […]

MIO-M1 cells = assay: mRNA angiogenesis array (TaqMan Array qPCR) in MIO-M1 cells; assay type: cell-based, human
Procedure: Angiogenesis array. Total RNA was isolated from MIO-MI cells (8 hours) and HUVECs (16 […]
cDNA was prepared with QuantiTect® Reverse Transcription Kit (Qiagen, Cat# 205311). RT-qPCR assay was performed with pre-configured TaqMan Array 96-Well FAST Plate for human angiogenic gene expression (Applied Biosystems, Inc) following the manufacture’s protocol. Each plate contains pre-defined genes including 18S, GAPDH and HPRT1 endogenous controls.
TaqMan Array plates were prepared by loading on each well 5 μl of cDNA sample (30 ng) with nuclease-free water and 5 μl of TaqMan™ Fast Advanced Master Mix (Applied Biosystem, Cat# […]
4444554). The reaction was performed using the QuantStudio™ 3 Flex Real‐Time PCR System as follows: 2 minutes at 50°C (stage 1); 10 minutes at 95°C (stage 2); 15 seconds at 95°C and 1 minutes at 60°C for 40 cycles (stage 3). The data were analyzed by using HPRT1 as endogenous […]
The clustering heatmaps were produced with “pheatmap” library in R with scale = row and clustering method = complete.
HUVEC cells, Euclidean distance was used to quantify the difference in qPCR screening. The Euclidean distance was calculated using “dist” function from R’s default stat library that measures

[2] = system: differentially expressed genes (DEGs) in OIR mice; assay: Bulk RNA-Seq of neurosensory retina of OIR mice; assay type: in vivo, mouse
Description: Bulk RNAseq. P17 mouse pups from non-OIR (control), OIR injected with DMSO (vehicle) at P12 […]
enucleated, and their retinas separated from the RPE/choroid. Total RNA was isolated using miRNeasy mini kit (QIAGEN). RNA was quantified using Nanodrop (ND-1000 spectrophotometer; Thermo Scientific). The RNA samples were sequenced by Novogene […]
Raw data (fastq files), data quality control, and genome alignment were generated by Novogene company. DESeq2 (6) was used for differentially expressed genes (DEG) analysis. Genes with adjusted P < 0.05 and log2 fold change > 1 were identified as DEGs. Normalized counts were used to produce clustering heatmaps and “complete” was the default method in the clustering analysis.
Gene Ontology (GO) analysis (biological process) was done using DAVID Bioinformatics Resources (7, 8). FDR < 0.05 was used as the threshold for enriched biological process. […]

[3] = MIO-M1, hypoxia+32-134D, 8 hours, Figure 7G
[4] = OIR mice P17, single intraocular 32-134D 70 ng/μL at P12

Chain of HIF-2α (Q99814 whole entry): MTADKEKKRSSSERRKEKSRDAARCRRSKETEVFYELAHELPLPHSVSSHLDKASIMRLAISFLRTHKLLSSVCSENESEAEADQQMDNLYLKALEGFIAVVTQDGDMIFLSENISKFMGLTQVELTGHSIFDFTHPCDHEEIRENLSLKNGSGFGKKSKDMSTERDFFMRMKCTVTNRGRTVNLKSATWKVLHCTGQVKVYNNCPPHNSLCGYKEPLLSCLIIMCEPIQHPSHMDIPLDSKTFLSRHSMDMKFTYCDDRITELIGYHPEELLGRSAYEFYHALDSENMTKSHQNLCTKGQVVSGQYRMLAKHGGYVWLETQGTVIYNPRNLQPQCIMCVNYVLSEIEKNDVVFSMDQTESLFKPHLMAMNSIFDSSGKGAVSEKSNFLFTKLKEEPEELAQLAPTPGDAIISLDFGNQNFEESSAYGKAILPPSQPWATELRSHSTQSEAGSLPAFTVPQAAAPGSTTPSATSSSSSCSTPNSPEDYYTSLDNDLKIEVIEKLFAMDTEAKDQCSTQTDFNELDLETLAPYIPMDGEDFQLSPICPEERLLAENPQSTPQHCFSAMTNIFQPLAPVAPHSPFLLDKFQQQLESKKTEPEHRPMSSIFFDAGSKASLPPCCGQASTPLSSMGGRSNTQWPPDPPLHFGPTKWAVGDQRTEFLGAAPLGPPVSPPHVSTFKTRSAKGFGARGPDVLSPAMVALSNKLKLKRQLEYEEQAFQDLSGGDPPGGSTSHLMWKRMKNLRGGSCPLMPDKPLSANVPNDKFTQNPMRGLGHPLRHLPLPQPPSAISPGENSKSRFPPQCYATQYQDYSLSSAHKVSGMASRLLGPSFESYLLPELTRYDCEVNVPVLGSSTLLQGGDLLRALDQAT

Brc1ccc2c(-c3csc(-c4c[nH]c5c(Br)cccc45)n3)c[nH]c2c1 [32-134D, 4-(6-bromo-1H-indol-3-yl)-2-(7-bromo-1H-indol-3-yl)thiazole]
HIF-2α protein accumulation in response to hypoxia (HIF-2α): decreased
Angptl4 mRNA ([1]; 40mg/kg i.p., 40 mg/kg): 0.6634 and 0.674 and 0.6653
Vegfa mRNA ([1]; 40mg/kg i.p., 40 mg/kg): 1.885 and 1.498 and 1.761
Angptl4 mRNA ([1]; 80mg/kg i.p., 80 mg/kg): 0.5186 and 0.5762 and 0.6276
Vegfa mRNA ([1]; 80mg/kg i.p., 80 mg/kg): 1.453 and 1.442 and 1.52
Angpt2 mRNA ([1]; 40mg/kg i.p., 40 mg/kg): 0.559 and 0.5248 and 0.5704
Ptprb mRNA ([1]; 40mg/kg i.p., 40 mg/kg): 0.7022 and 0.6022 and 0.6973
Angpt2 mRNA ([1]; 80mg/kg i.p., 80 mg/kg): 0.5647 and 0.5575 and 0.5047
Ptprb mRNA ([1]; 80mg/kg i.p., 80 mg/kg): 0.8502 and 0.8904 and 0.75
reduction in the Euclidean distance between control and hypoxic cell angiogenic gene expression (MIO-M1 cells; MIO-M1, from 73 to 31): 58%
mRNA transcripts of angiogenic genes versus cells cultured in hypoxia (in words) (MIO-M1 cells; MIO-M1, hypoxia + 32-134D): substantially reduced
ANG,RNASE4, angiogenesis array expression (control = 1) (MIO-M1 cells; [3]): 2.068
ANGPTL1, angiogenesis array expression (control = 1) (MIO-M1 cells; [3]): 0.8991
ANGPTL4, angiogenesis array expression (control = 1) (MIO-M1 cells; [3]): 30.9206
CDH5, angiogenesis array expression (control = 1) (MIO-M1 cells; [3]): 0.6144
CEACAM1, angiogenesis array expression (control = 1) (MIO-M1 cells; [3]): 1.055
COL15A1, angiogenesis array expression (control = 1) (MIO-M1 cells; [3]): 1.01
CSF3, angiogenesis array expression (control = 1) (MIO-M1 cells; [3]): 0.9339
FIGF, angiogenesis array expression (control = 1) (MIO-M1 cells; [3]): 1.127
HGF, angiogenesis array expression (control = 1) (MIO-M1 cells; [3]): 0.5689
IL8, angiogenesis array expression (control = 1) (MIO-M1 cells; [3]): 1.45
TIMP2, angiogenesis array expression (control = 1) (MIO-M1 cells; [3]): 0.9298
TIMP3, angiogenesis array expression (control = 1) (MIO-M1 cells; [3]): 0.7612
TNMD, angiogenesis array expression (control = 1) (MIO-M1 cells; [3]): 0.5729
TNNI1, angiogenesis array expression (control = 1) (MIO-M1 cells; [3]): 0.511
VEGFA, angiogenesis array expression (control = 1) (MIO-M1 cells; [3]): 8.239
reduction in downregulated DEGs [2, 4]: 93%
reduction in upregulated DEGs [2, 4]: 71%
upregulated DEGs compared with non-OIR (control) mice ([2]; OIR mice P17, single intraocular 32-134D 70 ng/μL at P12, 250 in untreated OIR): 73
downregulated DEGs compared with non-OIR (control) mice ([2]; OIR mice P17, single intraocular 32-134D 70 ng/μL at P12, 768 in untreated OIR): 52
top 37 upregulated DEGs of 4 biological functions (inflammation, angiogenesis, hypoxia, vasculogenesis) ([2]; OIR mice, 32-134D intraocular): normalization

Source: PMC10313368 (The Journal of Clinical Investigation, 2023)
